Source: US6605628B1, “Method of using 5-(arysulfonyl)-, 5-(arylsulfanyl)-and 5-(arylsulfanyl)thiazolidine-2,4-diones for inhibition of farnesyl-protein transferase” (Wyeth Holdings Corporation, priority 2001, dated 2003)

Legend:
FPTase [1] = molecular target: T1, FPTase (Homo sapiens, UniProt P49354+P49356); assay: in vitro FTase Inhibition Assay, K-Ras used as substrate for farnesylation; format: biochemical; settings: Table I
Protocol: (§1) Enzyme test procedure: FPTase inhibition in vitro assay was performed according to James, G. L., Brown, M. S., and Goldstein, J. L., Methods in Enzymology, 1995, 255, 38-46; and Garcia, M. A., et al., J. Biol. Chem., 1993, 268, 18415-18420.
(§2) Materials—Purified FPTase (Moomaw, J. F. and Casey, P. J., J. Biol. Chem., 1992, 267, 17438-17443), purified His6-Ras, inhibitor compounds at 10 mg/ml or 10 mM in 100% DMSO, ^3H-FPP (50,000 dpm/pmol) Amersham, TCA/SDS (6%/2%), TCA (6%), Glass fiber filters ([…]), vacuum manifold or 96 well filtration plates.
(§3) Methods—1. Dilute FPTase inhibitors from stock solutions to 2.5× in 2.5% DMSO, 10 mM DTT, 0.5% octyl-B-glucoside. 2. Solution #1 is added to FPTase reaction in a volume of […]. 3. Standard reaction mix, […], contains 50 mM Tris (7.5), 10 mM ZnCl2, 3 mM MgCl2, 20 mM KCl, 5 mM DTT, 0.2% octyl-B-glucoside, 1% DMSO, […] His6-Ras, 10 ng FPTase, and various concentrations of FPTase inhibitors. 4. Incubate for 30-90 min at 25° C. 5. Stop reactions with TCA/SDS (6%/2%), hold at 4° C. for 45-60 min. 6. Filter by manifold or 96 well plate, wash filter 3-5× with TCA (6%). 7. Add scintillant to filters, measure ^3H-FPP incorporation into Ras protein.
(§4) Analysis of Results—Percent inhibition by test compounds is determined by the following:
(§5) (cpm from precipitated Ras with test compounds)−(background cpm)×100=% inhibition.
(§6) (cpm from precipitated Ras without test compounds)−(background cpm)

FPTase [2] = molecular target: T1, FPTase; assay: in vitro FTase Inhibition Assay, H-Ras used as substrate for farnesylation; format: biochemical; settings: Table I, read-out: IC50 H-Ras*
Protocol: as §1, §2, §3, §4, §5, §6

| IC50 (FPTase [1]) [nM] | IC50 (FPTase [2]) [nM] | SMILES |
| --- | --- | --- |
| 33 | 3.3 | COc1ccc(S(=O)(=O)C2(CCCC#Cc3cc(NC(=O)OC(C)(C)C)ccc3C)SC(=O)NC2=O)cc1 (single isomer, unassigned; less polar) [Example 222, Enantiomer of (3-{5-[5-(4-Methoxybenzenesulfonyl)-2,4-dioxothiazolidin-5-yl]pent-1-ynyl}-4-methylphenyl)carbamic Acid tert-Butyl Ester (Less Polar)] |
| > 1000 | 63 | COc1ccc(S(=O)(=O)C2(CCCC#Cc3cc(NC(=O)OC(C)(C)C)ccc3C)SC(=O)NC2=O)cc1 (single isomer, unassigned; more polar) [Example 223, Enantiomer of (3-{5-[5-(4-Methoxybenzenesulfonyl)-2,4-dioxothiazolidin-5-yl]pent-1-ynyl}-4-methylphenyl)carbamic Acid tert-Butyl Ester (More Polar)] |
| 3500 to 5500 | 75 to 150 | COc1ccc(S(=O)(=O)C2(CCCC#Cc3ccc(Cl)cc3)SC(=O)NC2=O)cc1 (stereo not drawn) [Example 97, 5-[5-(4-Chlorophenyl)pent4-ynyl]-5-(4-methoxyphenylsulfonyl)-thiazolidine-2,4-dione] |
| 1500 to 1700 | 50 to 150 | O=C1NC(=O)C(CCCC#Cc2ccc(Cl)cc2)(S(=O)(=O)c2ccc(F)cc2)S1 (stereo not drawn) [Example 105, 5-[5-(4-Chlorophenyl)pent-4-ynyl]-5-(4-fluorobenzenesulfonyl)thiazolidine-2,4-dione] |
| 1400 to 2100 | 65 to 130 | O=C1NC(=O)C(CCCC#Cc2ccc(Cl)cc2)(S(=O)(=O)c2cccc3cccnc23)S1 (stereo not drawn) [Example 109, 5-[5-(4-Chlorophenyl)pent-4-ynyl]-5-(quinoline-8-sulfonyl)thiazolidine-2,4-dione] |
| 7000 | 400 | O=C1NC(=O)C(CCCC#Cc2ccc(Cl)cc2)(S(=O)(=O)c2ccc([N+](=O)[O-])cc2)S1 (stereo not drawn) [Example 110, 5-[5-(4-Chlorophenyl)pent-4-ynyl]-5-(4-nitrobenzenesulfonyl)thiazolidine-2,4-dione] |
| 160 to 230 | 12 to 320 | O=C1NC(=O)C(CCCC#Cc2cc(Cl)ccc2Cl)(S(=O)(=O)c2ccc(I)cc2)S1 (stereo not drawn) [Example 115, 5-[5-(2,5-Dichloro-phenyl)pent-4-ynyl]-5-(4-iodobenzenesulfonyl)-thiazolidine-2,4-dione] |
| 230 to 1000 | 30 to 50 | COc1ccc(S(=O)(=O)C2(CCCC#Cc3cc([N+](=O)[O-])ccc3C)SC(=O)NC2=O)cc1 (stereo not drawn) [Example 122, 5-(4-Methoxybenzenesulfonyl)-5-[5-(2-methyl-5-nitrophenyl)pent-4-ynyl]thiazolidine-2,4-dione] |
| 1000 to 2800 | 80 to 82 | COc1ccc(S(=O)(=O)C2(CCCC#Cc3cc([N+](=O)[O-])ccc3OC)SC(=O)NC2=O)cc1 (stereo not drawn) [Example 123, 5-(4-Methoxybenzenesulfonyl)-5-[5-(2-methoxy-5-nitrophenyl)pent-4-ynyl]thiazolidine-2,4-dione] |
| 320 to 1000 | 23 to 56 | COc1ccc(S(=O)(=O)C2(CCCC#Cc3ccc([N+](=O)[O-])cc3C)SC(=O)NC2=O)cc1 (stereo not drawn) [Example 130, 5-(4-Methoxybenzenesulfonyl)-5-[5-(2-methyl-4-nitrophenyl)-pent-4-ynyl]-thiazolidine-2,4-dione] |
| 210 to 1000 | 41 to 73 | COc1ccc(S(=O)(=O)C2(CCCC#Cc3ccc([N+](=O)[O-])cc3OC)SC(=O)NC2=O)cc1 (stereo not drawn) [Example 132, 5-(4-Methoxybenzenesulfonyl)-5-[5-(2-methoxy-4-nitrophenyl)pent-4-ynyl]thiazolidine-2,4-dione] |
| 54 to 1000 | 40 to 200 | COc1ccc(S(=O)(=O)C2(CCCC#Cc3cc(F)cc([N+](=O)[O-])c3)SC(=O)NC2=O)cc1 (stereo not drawn) [Example 133, 5-[5-(3-Fluoro-5-nitrophenyl)pent-4-ynyl]-5-(4-methoxybenzenesulfonyl)-thiazolidine-2,4-dione] |
